Format in all cases: cell-based
The subject of assay [1] is MRC-5 (normal human embryonic lung fibroblasts). The assay can be described thus: Cytotoxicity toward normal cell line MRC-5. The settings on record: for IC50: MRC5, MRC-5 normal cell line, mean ± S.D. (n = 3). On the procedure:
(§1) In our study, several compounds (1–4, 6–8, 10, and 12–16) were evaluated for their cytotoxicity using a panel of human cancer cell lines, including MOLT-3 (acute lymphoblastic leukemia), HepG2 (hepatocarcinoma), A549 (human lung cancer), HuCCA-1 (human chlolangiocarcinoma), HeLa (cervical carcinoma), and MDA-MB-231 (hormone-independent breast cancer) as well as a normal cell line, MRC-5 (normal human embryonic lung fibroblasts).

The test system of a further assay is HepG2 (hepatocarcinoma). The assay can be described thus: Cytotoxicity, MTT assay, HepG2. Conditions: Homo sapiens; for IC50: HepG-2, mean ± S.D. (n = 3), MTT assay. On the procedure: as §1
(§2) The cytotoxic activity toward a panel of mammalian cancer cell lines (HepG2, A549, HuCCA-1, HeLa, MDA-MB-231) were tested using the 3-(4,5-dimethylthiazol-2-yl)-2,5-diphenyltetrazolium bromide (MTT) assay, while the activity toward MOLT-3 cancer cell line was performed by the 2,3-bis-(2-methoxy-4-nitro-5-sulphenyl)-(2H)-tetrazolium-5-carboxanilide (XTT) assay. Etoposide and doxorubicin were used as positive controls (Table 4).
For orientation: Tetrazolium assays rely on reduction of a dye to a coloured formazan, in cell work by metabolically active cells.

For assay [2], the system named is HuCCA-1 (human chlolangiocarcinoma). The experiment in a line: Cytotoxicity, MTT assay, HuCCA-1. The settings on record: for IC50: HuCC-A1, mean ± S.D. (n = 3), MTT assay. How it is done: as §1, §2
Assay [3] concerns MOLT-3 (acute lymphoblastic leukemia). The experiment in a line: Cytotoxicity, XTT assay, MOLT-3. Conditions: Homo sapiens; for IC50: mean ± S.D. (n = 3), XTT assay. On the procedure:
as §1, §2

A further assay deals with A549 (human lung cancer). The experiment in a line: Cytotoxicity, MTT assay, A549. Conditions: for IC50: mean ± S.D. (n = 3), MTT assay. How it is done: as §1, §2
The test system of assay [4] is HeLa (cervical carcinoma). The assay can be described thus: Cytotoxicity, MTT assay, HeLa. Conditions: Homo sapiens, mean ± S.D. (n = 3). How it is done:
as §1, §2

Assay [5] deals with MDA-MB-231 (hormone-independent breast cancer). The experiment in a line: Cytotoxicity, MTT assay, MDA-MB-231. Conditions: Homo sapiens, mean ± S.D. (n = 3). How it is done: as §1, §2

What is called IC50 is the concentration needed to halve the response being measured. The term inhibition denotes the relative decrease from the control value, in per cent. A low value points to little suppression.

`CC(CCC(C)(O)C1CCC2C3C(O)CC4CC(O)CCC4(C)C3CC(O)C21C)C1CC1C` (stereo not drawn) [Compound 1, 26,27-cyclo-24,27-dimethylcholestan-3α,7α,12β,20β-tetraol]: the half-maximal inhibitory concentration (IC50) in assay [1] stood at 40.1 ± 1.23 µM; with HepG2 (hepatocarcinoma), 12.7 ± 1.67 µM; in assay [2], 21.3 ± 1.84 µM; in assay [3] it was 17.9 ± 0.26 µM; in the assay with A549 (human lung cancer), 20 ± 1.52 µM.

For the compound `C[C@H](CC[C@](C)(O)[C@H]1CC[C@@]2(O)[C@@H]3CC[C@H]4C[C@H](O)CC[C@]4(C)[C@H]3C[C@@H](O)[C@]12C)[C@@H]1C[C@H]1C` [Compound 2, 26,27-cyclo-24,27-dimethylcholestan-3α,12β,14,20β-tetraol], the IC50 in assay [1] was 60.6 ± 12.8 µM; with HepG2 (hepatocarcinoma), 44.8 ± 3.79 µM; in assay [2], 37.9 ± 3.01 µM; in assay [3] it was 32.4 ± 1.08 µM; in the assay with A549 (human lung cancer) it was 38.59 ± 0.24 µM.

Take `C[C@H](CC[C@](C)(O)[C@H]1CCC2[C@@H]3[C@H](O)C=C4C[C@@H](O)CC[C@]4(C)[C@H]3C[C@@H](O)[C@@]21C)[C@@H]1C[C@H]1C` (stereo partly drawn) [Compound 3, 26,27-cyclo-24,27-dimethylcholest-5-ene-3β,7α,12β,20β-tetraol]: the inhibition at 54.35 µM in assay [1] (MRC5, MRC-5, at 54.35 μM) was 24.7%; with A549 (human lung cancer) (at 54.35 μM) it was 9%. The results for the half-maximal inhibitory concentration (IC50) (with HepG2 (hepatocarcinoma); in assay [2]) were 44.6 ± 9.76 µM and 47.5 ± 6.96 µM, respectively. The inhibition at 27.17 µM in assay [3] (at 27.17 μM) came out at 8%.

`COC1(OC)CC[C@@]2(C)[C@@H](C[C@@H](O)[C@@H]3[C@@H]2C[C@@H](O)[C@@]2(C)[C@H]3CC[C@@H]2[C@@](C)(O)CC[C@@H](C)[C@@H]2C[C@H]2C)C1` [Compound 4, 26,27-cyclo-24,27-dimethylcholestan-3,3-dimethoxy-7α,12β,20β-triol]: the inhibition at 24.7 µM was 5.45% in assay [1] (MRC5, MRC-5, at 24.70 μM) and 20.3% with HepG2 (hepatocarcinoma) (HepG-2, at 24.70 μM). The inhibition at 12.35 µM in assay [2] (HuCC-A1, at 12.35 μM) came to 0%; in assay [3] (at 12.35 μM), 0%; in the assay with A549 (human lung cancer) (at 12.35 μM), 2%.

Turning to `C[C@H](CC[C@](C)(O)[C@H]1CC[C@H]2[C@@H]3CC[C@H]4C[C@H](O)CC[C@]4(C)[C@H]3C[C@@H](O)[C@@]21C)[C@@H]1C[C@H]1C` [Compound 6, aragusterol I], the IC50 in assay [1] turned out to be 63.4 ± 8.3 µM; in the assay on HepG2 (hepatocarcinoma), 54.9 ± 2.04 µM; in assay [2] it was 37.06 ± 0.36 µM; in assay [3] it was 20.1 ± 0.52 µM; with A549 (human lung cancer) it was 34.7 ± 17.7 µM.

On to `C[C@H](CC[C@](C)(O)[C@H]1CC[C@H]2[C@@H]3CC[C@H]4CC(=O)CC[C@]4(C)[C@H]3C[C@@H](O)[C@@]21C)[C@H]1C[C@@H]1C` [Compound 7, aragusterol B], for which the IC50 with HepG2 (hepatocarcinoma) came to 26.5 ± 5.32 µM; in assay [2] it was 25.1 ± 2.27 µM; in assay [4], 11.23 ± 0.05 µM; in assay [5], 27 ± 7.79 µM; in assay [3], 16.3 ± 18 µM; with A549 (human lung cancer) it was 23.6 ± 2 µM.

With `CC(CCC(C)(O)[C@H]1CC[C@H]2[C@@H]3[C@H](O)C[C@H]4CC(=O)CC[C@]4(C)[C@H]3C[C@@H](O)[C@]12C)C1CC1C` (stereo partly drawn) [Compound 8, xestokerol B], the IC50 in assay [1] stood at 90.1 ± 6.88 µM; with HepG2 (hepatocarcinoma), 18.2 ± 1.86 µM; in assay [2], 103 ± 2.29 µM; in the assay with A549 (human lung cancer), 32.6 ± 3.64 µM. For the same compound, the inhibition at 108.7 µM in assay [3] (at 108.70 μM) amounted to 43%.

As to `C[C@H](CC[C@@H](C)[C@H]1CC[C@H]2[C@@H]3C(=O)C=C4C[C@@H](O)CC[C@]4(C)[C@H]3CC[C@]12C)[C@@H]1C[C@H]1C` [Compound 10, 7-oxopetrosterol], the IC50 in assay [1] stood at 44.8 ± 1.36 µM; with HepG2 (hepatocarcinoma), 49.8 ± 3.96 µM; in the assay with A549 (human lung cancer), 52.1 ± 3.35 µM. At 58.69 µM the inhibition in assay [2] (HuCC-A1, at 58.69 μM) was 44%. The compound also came in with an inhibition at 29.34 µM in assay [3] (at 29.34 μM) of 2%.

As for `CC(C)CC=CC(C)(O)C1CCC2C3C(O)CC4CC(=O)CCC4(C)C3CC(O)C21C` (stereo not drawn) [Compound 12, 7α,12β,20β-trihydroxycholesta-22E-en-3-one], the IC50 in assay [1] is 76.9 ± 10.7 µM; with HepG2 (hepatocarcinoma), 56.5 ± 2.15 µM; in assay [2] it was 66.1 ± 0.9 µM; in assay [3], 36.6 ± 1.11 µM; in the assay with A549 (human lung cancer), 54.3 ± 3.84 µM.

For the compound `COC1(OC)CC[C@@]2(C)C(CC[C@H]3C4CC[C@H]([C@@](O)(CO)[C@H](O)C[C@@H](C)[C@@H]5C[C@H]5C)[C@@]4(C)[C@H](O)C[C@@H]32)C1` (stereo partly drawn) [Compound 13, 26,27-cyclo-24,27-dimethylcholestan-3,3-dimethoxy-12β,21,20α,22α-tetraol], the IC50 in assay [1] stood at 37.7 ± 10.7 µM; with HepG2 (hepatocarcinoma) it was 12.5 ± 0.84 µM; in assay [2], 20.8 ± 2.32 µM; in assay [3] it was 14.9 ± 0.25 µM; in the assay on A549 (human lung cancer) it was 17.9 ± 2.26 µM.

As for `CC1CC1C(C)CC(O)C(O)(CO)[C@H]1CC[C@H]2[C@@H]3CC[C@H]4CC(=O)CC[C@]4(C)[C@H]3C[C@@H](O)[C@]12C` (stereo partly drawn) [Compound 14, xestokerol A], the IC50 came to 65.9 ± 4.54 µM in assay [1]; 41.4 ± 3.24 µM in the assay on HepG2 (hepatocarcinoma); 34.4 ± 1.83 µM in assay [2]; 24.4 ± 3.11 µM in assay [3]; 23.8 ± 1.87 µM with A549 (human lung cancer).

With `C[C@@H]1C[C@H]1[C@H](C)C[C@@H](O)[C@@]1([C@H]2CC[C@H]3[C@@H]4CC[C@H]5CC(=O)CC[C@]5(C)[C@H]4C[C@@H](O)[C@]23C)CO1` [Compound 15, aragusterol A], the IC50 came to 7.1 ± 4.76 µM with HepG2 (hepatocarcinoma); 37.6 ± 1.4 µM in assay [2]; 6.11 ± 0.02 µM in assay [4]; 18 ± 5.74 µM in assay [5]; 12.8 ± 0.98 µM in assay [3]; 37.93 ± 0.07 µM in the assay with A549 (human lung cancer).

On to `COC1(OC)CC[C@@]2(C)C(CC[C@H]3C4CC[C@H]([C@]5([C@@H](O)C[C@@H](C)[C@@H]6C[C@H]6C)CO5)[C@@]4(C)[C@H](O)C[C@@H]32)C1` (stereo partly drawn) [Compound 16, aragusterolketal], for which the IC50 in assay [1] was found to be 49.6 ± 6.67 µM; with HepG2 (hepatocarcinoma), 11.3 ± 9.29 µM; in assay [2] it was 34.6 ± 3.85 µM; in assay [3], 14.6 ± 0.36 µM; in the assay with A549 (human lung cancer), 29.1 ± 8.25 µM.

The compound `COc1cccc2c1C(=O)c1c(O)c3c(c(O)c1C2=O)C[C@@](O)(C(=O)CO)C[C@@H]3O[C@H]1C[C@H](N)[C@H](O)[C@H](C)O1` [Doxorubicin, reference compound] showed an inhibition at 50 µM in assay [1] (MRC5, MRC-5, at 50.00 μM) of 24.9%. Also, the IC50 in the assay on HepG2 (hepatocarcinoma) came out at 0.55 ± 0.12 µM; in assay [2], 2.24 ± 0.15 µM; in assay [4], 0.17 ± 0.1 µM; in assay [5] it was 1.78 ± 0.54 µM; in the assay with A549 (human lung cancer) it was 0.92 ± 0.06 µM.

For the compound `COc1cc([C@@H]2c3cc4c(cc3[C@@H](O[C@@H]3O[C@@H]5CO[C@@H](C)O[C@H]5[C@H](O)[C@H]3O)[C@H]3COC(=O)[C@H]23)OCO4)cc(OC)c1O` [Etoposide, reference compound], the values for the 50% inhibitory concentration (IC50) (in the assay on HepG2 (hepatocarcinoma); in assay [3]) were 31.5 ± 15.6 µM and 0.07 ± 0.005 µM, respectively.
